Data from patent US10597388B2, “Pyridazinone herbicides” (FMC CORPORATION, priority 2014, dated 2020).

Experiments:
Assay in all cases: Test E greenhouse herbicide test, pre- and postemergence
Format in all cases: in vivo
[1] = tested on: pigweed, palmer (palmer pigweed, Amaranthus palmeri)
Method in brief: (§1)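 Scores (0–100, visual, vs controls) reflect greenhouse growth of 14 to 21 d after treatment. Application was pre-emergence to silt loam or post-emergence at the 1- to 4-leaf stage.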

[2] = tested on: nutsedge, yellow (yellow nutsedge, Cyperus esculentus); conditions: Preemergence
Method in brief: as §1

[3] = tested on: lambsquarters (Chenopodium album); conditions: Preemergence
Method in brief: as §1

[4] = tested on: dayflower (Virginia (VA) dayflower, Commelina virginica)
Method in brief: as §1

[5] = tested on: Italian ryegrass (Lolium multiflorum)
Method in brief: as §1

[6] = tested on: soybean (Glycine max)
Method in brief: as §1

[7] = tested on: momingglory (Ipomoea coccinea); conditions: Preemergence
Method in brief: as §1

[8] = tested on: barnyardgrass (Echinochloa crus-galli)
Method in brief: as §1

[9] = tested on: johnsongrass (Sorghum halepense); conditions: Preemergence
Method in brief: as §1

[10] = tested on: foxtail, green (green foxtail, Setaria viridis); conditions: Preemergence
Method in brief: as §1

[11] = tested on: arrowleaf sida (Sida rhombifolia)
Method in brief: as §1

[12] = tested on: velvetleaf (Abutilon theophrasti); conditions: Preemergence
Method in brief: as §1

[13] = tested on: corn (Zea mays)
Method in brief: as §1

[14] = 62 g ai/ha, Preemergence, scale 0 to 100 (0 no effect, 100 complete control)
[15] = 125 g ai/ha, Preemergence, scale 0 to 100 (0 no effect, 100 complete control)
[16] = Preemergence, 31 g ai/ha, scale 0 to 100, 0 no effect, 100 complete control
[17] = Preemergence, 250 g ai/ha, visual, scale 0 no effect to 100 complete control
[18] = 62 g ai/ha, scale 0 to 100 (0 no effect, 100 complete control)
[19] = 125 g ai/ha, scale 0 to 100 (0 no effect, 100 complete control)
[20] = 31 g ai/ha, scale 0 to 100, 0 no effect, 100 complete control
[21] = 250 g ai/ha, visual, scale 0 no effect to 100 complete control
[22] = 125 g ai/ha, visual, scale 0 no effect to 100 complete control
[23] = Preemergence, 125 g ai/ha, visual, scale 0 no effect to 100 complete control
[24] = 62 g ai/ha, Postemergence, scale 0 to 100 (0 no effect, 100 complete control)
[25] = 125 g ai/ha, Postemergence, scale 0 to 100 (0 no effect, 100 complete control)
[26] = Postemergence, 16 g ai/ha, visual, scale 0 no effect to 100 complete control
[27] = Postemergence, 31 g ai/ha, visual, scale 0 no effect to 100 complete control
[28] = Preemergence, 16 g ai/ha, scale 0 to 100, 0 no effect, 100 complete control
[29] = 16 g ai/ha, scale 0 to 100, 0 no effect, 100 complete control

Cc1ccc2ccccc2c1-c1c(O)c(I)nn(C)c1=O [Compound 29]
Plant response rating, Pigweed, Palmer [1, 14]: 70
Plant response rating, Pigweed, Palmer [1, 15]: 100
Plant response rating, Pigweed, Palmer [1, 16]: 90
Plant response rating, Pigweed, Palmer [1, 17]: 100
Plant response rating, Nutsedge, Yellow [2, 18]: 0
Plant response rating, Nutsedge, Yellow [2, 19]: 30
Plant response rating, Nutsedge, Yellow [2, 20]: 0
Plant response rating, Nutsedge, Yellow [2, 21]: 70
Plant response rating, Lambsquarters [3, 18]: 100
Plant response rating, Lambsquarters [3, 20]: 100
Plant response rating, Lambsquarters [3, 22]: 100
Plant response rating, Lambsquarters [3, 21]: 98
Plant response rating, Dayflower, VA [4, 14]: 0
Plant response rating, Dayflower, VA [4, 16]: 0
Plant response rating, Dayflower, VA [4, 23]: 10
Plant response rating, Dayflower, VA [4, 17]: 60
Plant response rating, Ryegrass, Italian [5, 14]: 75
Plant response rating, Ryegrass, Italian [5, 15]: 95
Plant response rating, Ryegrass, Italian [5, 16]: 65
Plant response rating, Ryegrass, Italian [5, 17]: 100
Plant response rating, Soybean [6, 14]: 50
Plant response rating, Soybean [6, 15]: 70
Plant response rating, Soybean [6, 16]: 70
Plant response rating, Soybean [6, 17]: 50
Plant response rating, Morningglory [7, 18]: 65
Plant response rating, Morningglory [7, 19]: 80
Plant response rating, Morningglory [7, 20]: 35
Plant response rating, Morningglory [7, 21]: 95
Plant response rating, Barnyardgrass [8, 14]: 25
Plant response rating, Barnyardgrass [8, 16]: 0
Plant response rating, Barnyardgrass [8, 23]: 65
Plant response rating, Barnyardgrass [8, 17]: 90
Plant response rating, Johnsongrass [9, 18]: 70
Plant response rating, Johnsongrass [9, 20]: 70
Plant response rating, Johnsongrass [9, 22]: 65
Plant response rating, Johnsongrass [9, 21]: 100
Plant response rating, Foxtail, Green [10, 18]: 75
Plant response rating, Foxtail, Green [10, 20]: 65
Plant response rating, Foxtail, Green [10, 22]: 90
Plant response rating, Foxtail, Green [10, 21]: 100
Plant response rating, Arrowleaf Sida [11, 14]: 90
Plant response rating, Arrowleaf Sida [11, 16]: 70
Plant response rating, Arrowleaf Sida [11, 23]: 98
Plant response rating, Arrowleaf Sida [11, 17]: 98
Plant response rating, Velvetleaf [12, 18]: 95
Plant response rating, Velvetleaf [12, 19]: 100
Plant response rating, Velvetleaf [12, 20]: 70
Plant response rating, Velvetleaf [12, 21]: 100
Plant response rating, Corn [13, 14]: 0
Plant response rating, Corn [13, 16]: 0
Plant response rating, Corn [13, 23]: 0
Plant response rating, Corn [13, 17]: 0

Cc1ccc2sc(C)c(-c3c(OC(=O)OC(C)C)c(C)nn(C)c3=O)c2c1 [Compound 66]
Plant response rating, Pigweed, Palmer [1, 24]: 60
Plant response rating, Pigweed, Palmer [1, 14]: 65
Plant response rating, Pigweed, Palmer [1, 25]: 80
Plant response rating, Pigweed, Palmer [1, 15]: 100
Plant response rating, Pigweed, Palmer [1, 26]: 50
Plant response rating, Pigweed, Palmer [1, 27]: 70
Plant response rating, Pigweed, Palmer [1, 28]: 0
Plant response rating, Pigweed, Palmer [1, 16]: 0
Plant response rating, Nutsedge, Yellow [2, 18]: 65
Plant response rating, Nutsedge, Yellow [2, 19]: 50
Plant response rating, Nutsedge, Yellow [2, 29]: 0
Plant response rating, Nutsedge, Yellow [2, 20]: 5
Plant response rating, Lambsquarters [3, 18]: 100
Plant response rating, Lambsquarters [3, 19]: 100
Plant response rating, Lambsquarters [3, 29]: 5
Plant response rating, Lambsquarters [3, 20]: 90
Plant response rating, Dayflower, VA [4, 24]: 60
Plant response rating, Dayflower, VA [4, 14]: 0
Plant response rating, Dayflower, VA [4, 25]: 50
Plant response rating, Dayflower, VA [4, 15]: 20
Plant response rating, Dayflower, VA [4, 26]: 0
Plant response rating, Dayflower, VA [4, 27]: 25
Plant response rating, Dayflower, VA [4, 28]: 0
Plant response rating, Dayflower, VA [4, 16]: 0
Plant response rating, Ryegrass, Italian [5, 24]: 40
Plant response rating, Ryegrass, Italian [5, 14]: 90
Plant response rating, Ryegrass, Italian [5, 25]: 50
Plant response rating, Ryegrass, Italian [5, 15]: 100
Plant response rating, Ryegrass, Italian [5, 26]: 20
Plant response rating, Ryegrass, Italian [5, 27]: 30
Plant response rating, Ryegrass, Italian [5, 28]: 40
Plant response rating, Ryegrass, Italian [5, 16]: 65
Plant response rating, Soybean [6, 24]: 20
Plant response rating, Soybean [6, 14]: 0
Plant response rating, Soybean [6, 25]: 20
Plant response rating, Soybean [6, 15]: 0
Plant response rating, Soybean [6, 26]: 0
Plant response rating, Soybean [6, 27]: 0
Plant response rating, Soybean [6, 28]: 0
Plant response rating, Soybean [6, 16]: 0
Plant response rating, Morningglory [7, 18]: 30
Plant response rating, Morningglory [7, 19]: 40
Plant response rating, Morningglory [7, 29]: 0
Plant response rating, Morningglory [7, 20]: 0
Plant response rating, Barnyardgrass [8, 24]: 25
Plant response rating, Barnyardgrass [8, 14]: 20
Plant response rating, Barnyardgrass [8, 25]: 20
Plant response rating, Barnyardgrass [8, 15]: 15
Plant response rating, Barnyardgrass [8, 26]: 20
Plant response rating, Barnyardgrass [8, 27]: 15
Plant response rating, Barnyardgrass [8, 28]: 0
Plant response rating, Barnyardgrass [8, 16]: 15
Plant response rating, Johnsongrass [9, 18]: 0
Plant response rating, Johnsongrass [9, 19]: 0
Plant response rating, Johnsongrass [9, 29]: 0
Plant response rating, Johnsongrass [9, 20]: 0
Plant response rating, Foxtail, Green [10, 18]: 35
Plant response rating, Foxtail, Green [10, 19]: 70
Plant response rating, Foxtail, Green [10, 29]: 0
Plant response rating, Foxtail, Green [10, 20]: 0
Plant response rating, Arrowleaf Sida [11, 24]: 60
Plant response rating, Arrowleaf Sida [11, 14]: 40
Plant response rating, Arrowleaf Sida [11, 25]: 70
Plant response rating, Arrowleaf Sida [11, 15]: 65
Plant response rating, Arrowleaf Sida [11, 26]: 30
Plant response rating, Arrowleaf Sida [11, 27]: 40
Plant response rating, Arrowleaf Sida [11, 28]: 0
Plant response rating, Arrowleaf Sida [11, 16]: 0
Plant response rating, Velvetleaf [12, 18]: 20
Plant response rating, Velvetleaf [12, 19]: 80
Plant response rating, Velvetleaf [12, 29]: 0
Plant response rating, Velvetleaf [12, 20]: 0
Plant response rating, Corn [13, 24]: 10
Plant response rating, Corn [13, 14]: 0
Plant response rating, Corn [13, 25]: 15
Plant response rating, Corn [13, 15]: 20
Plant response rating, Corn [13, 26]: 0
Plant response rating, Corn [13, 27]: 0
Plant response rating, Corn [13, 28]: 0
Plant response rating, Corn [13, 16]: 0
